Experimental data reported in US8883763B2 (Universite Joseph Fourier, priority 2010, dated 2014).

System: HeLa cells
Test: Comparative tests with INH2BP: antiproliferative activity
Assay type: cell-based, human
Conditions: 50 μM
Procedure: The cells were seeded in 96-well plates (1,000 per well) and incubated with different concentrations of compound 6 (1 nM to 100 μM), for 5 days (120 hours). At the end of this incubation, Hoechst 33342 (1 μg/ml) was added to the culture medium and the live cells were counted under a fluorescence microscope (Zeiss Axiovert 200M). The data represents the average of two independent experiments during which 10 fields chosen at random were analyzed for each concentration of compound 6, themselves produced in triplicate.

Nc1ccc2oc(=O)ccc2c1I [INH2BP, 5-iodo-6-amino-1,2-benzopyrone]
antiproliferative activity on HeLa cells: no antiproliferative activity
